{
  "source": "patent US9340563B2",
  "about": "“Salts of isophosphoramide mustard and analogs thereof” (priority 2007, dated 2016)",
  "key": {"[1]": {"experiment": "pH (Example 16)", "type": "physicochemical"}, "[2]": {"system": "MX-1 human mammary tumor", "experiment": "MX-1 human mammary tumor xenograft (Example 8)", "text": "Animal Care: Five-weeks-old female athymic NCr-nu/nu mice were purchased from Harlan (Prattville, Ala.).\nTumor Model: Thirty-to-forty mg fragments of MX-1 human mammary tumor maintained in an in vivo passage were implanted sc in mice in the mammary fat pad using a 12-gauge trocar needle and allowed to grow. The day of tumor implantation was designated as day 0. […] A sufficient number of mice were implanted so that tumors in a weight range as narrow as possible were selected for the trial on the day of treatment initiation (day 6 after tumor implantation). Those animals selected with tumors in the proper size range were assigned to the various treatment groups so that the median tumor weights on the first day of treatment were as close to each other as possible (144-162 mg).\nAll dosing solutions were kept on ice after formulation and were administered within 30 min. All injections were administered on the basis of exact body weight with the injection volume being 0.2 mL/10 g body weight.\nDrug Treatment: The experiment consisted of 16 treatment groups of eight mice per group and two vehicle-treated control groups with ten mice each for a total of 148 mice on the first day of treatment. All agents (and vehicle) were administered daily for five consecutive days (q1d×5). […] The control groups were treated either ip (group no. 1) or po (group no. 10) with the vehicle (saline).\nTumor Measurements and Body Weights: The sc tumors were measured and the animals were weighed twice weekly starting with the first day of treatment. Tumor volume was determined by caliper measurements (mm) and using the formula for an ellipsoid sphere: L×W^2/2=mm^3, where L and W refer to the larger and smaller perpendicular dimensions collected at each measurement. This formula is also used to calculate tumor weight, assuming unit density (1 mm^3=1 mg.).\nStudy Duration: The study was terminated 52 days after tumor implantation. Any animal that became moribund or whose tumor became ulcerated and reached 4,000 mg was euthanized prior to study termination.\nParameters Evaluated: Number of nonspecific deaths, number of partial and complete tumor regressions, number of tumor-free survivors, and the individual animals' times to reach two tumor mass doublings were determined. The median time to reach two tumor mass doubling in the treatment groups (T) and control group (C) was used in the calculation of the overall delay in the growth of the median tumor (T-C).\nStatistical Analysis: The individual animal's time to reach two tumor mass doublings was used as the endpoint in a Student's t-test/Mann Whitney rank sum test in order to compare statistically the growth data between groups."}, "[3]": {"system": "MX-1 human mammary tumors", "experiment": "MX-1 human mammary tumor xenograft (Example 7)", "type": "in vivo, athymic NCr-nu/nu mice", "protocol": "Each concentration was then aliquoted for daily use, frozen, stored at −20° C., and thawed for daily use.\nThe control groups were treated either ip or po with the vehicle (saline).\nStudy Duration: The study was terminated 50 days after tumor implantation."}, "[4]": {"type": "physicochemical", "settings": "temperature and duration of storage"}, "[5]": {"experiment": "Solubility and reconstitution time (Example 16)", "type": "physicochemical"}, "[6]": {"type": "physicochemical", "settings": "pH 7 buffer, approximately 25° C."}, "[7]": {"system": "CPA-resistant human sarcoma cells (OS31 osteosarcoma)", "settings": "mice with xenografts of CPA-resistant human sarcoma cells", "text": "CB17 female scid*/* mice (Taconic Farms, Germantown, N.Y.) were implanted with tumor subcutaneous flank tumors. […] For transplantation with OS1 tumor, mice were anesthetized with 4% isoflurane. After a small incision was made in the flank of the mouse, and a 4 mm by 4 mm section of tumor implanted subcutaneously.\nWhen the tumors were approximately 0.20 to 0.7 cm in diameter, tumor-bearing mice were randomized into groups of 5 to 8 mice with 1 treatment group and 1 control group. Treated mice received tasidotin at a dose of 90 mg/kg/day as an intraperitoneal injection daily for 5 days starting on days 1 and 21. Assuming a spherical tumor, the volume was determined by the formula: mm^3=*/6(D)d^2, where D is the maximal diameter and d is the diameter perpendicular to D. Volumes are expressed as relative tumor volumes (RTV) where the tumor volume at any given time point is divided by the starting tumor volume. The RTV for treated and control mice were measured a minimum of once per week.\nA partial response is defined as greater than 50% regression in tumor volume (RTV<0.5) but with a measurable tumor mass of greater than 0.10 cm^3. Loss of measurable tumor mass (<0.10 cm^3) at any point during the treatment period (6 weeks) was defined as a complete response (CR). […]"}},
  "note": "Read-outs that look alike come from different tables or passages of the source.",
  "data": [
    {"smiles": "O=P(O)(NCCCl)NCCCl", "note": "[IPM, isophosphoramide mustard]", "values": [
      {"measurement": "pH", "setting": "[1]", "value": 3.02},
      {"measurement": "maximum loss in mean body weight", "setting": "[2]; ip q1d×5, 24 mg/kg/dose", "value": 2, "unit": "%"},
      {"measurement": "tumor growth delay (T-C)", "setting": "[2]; ip q1d×5, 24 mg/kg/dose", "value": 0.3, "unit": "days"},
      {"measurement": "maximum loss in mean body weight", "setting": "[2]; ip q1d×5, 36 mg/kg/dose", "value": 8, "unit": "%"},
      {"measurement": "maximum loss in mean body weight", "setting": "[2]; po q1d×5, 81 mg/kg/dose", "value": 9, "unit": "%"},
      {"measurement": "tumor growth delay (T-C)", "setting": "[2]; po q1d×5, 81 mg/kg/dose", "value": 2.3, "unit": "days"},
      {"measurement": "maximum loss in mean body weight", "setting": "[2]; po q1d×5, 120 mg/kg/dose", "value": 18, "unit": "%"},
      {"measurement": "tolerability", "setting": "[2]; po q1d×5, 120 mg/kg/dose", "value": "toxic"},
      {"measurement": "deaths", "setting": "[2]; po q1d×5, 120 mg/kg/dose, eight mice per group", "value": "two deaths"},
      {"measurement": "maximum loss in mean body weight", "setting": "[3]; ip q1d×5, 24 mg/kg/dose", "value": 5, "unit": "%"},
      {"measurement": "tumor growth delay (T-C)", "setting": "[3]; ip q1d×5, 24 mg/kg/dose", "value": 2.6, "unit": "days"},
      {"measurement": "maximum loss in mean body weight", "setting": "[3]; ip q1d×5, 36 mg/kg/dose", "value": 0, "unit": "%"},
      {"measurement": "maximum loss in mean body weight", "setting": "[3]; po q1d×5, 81 mg/kg/dose", "value": 5, "unit": "%"},
      {"measurement": "tumor growth delay (T-C)", "setting": "[3]; po q1d×5, 81 mg/kg/dose", "value": 4.0, "unit": "days"},
      {"measurement": "maximum loss in mean body weight", "setting": "[3]; po q1d×5, 120 mg/kg/dose", "value": 5, "unit": "%"},
      {"measurement": "tumor growth delay (T-C)", "setting": "[3]; po q1d×5, 120 mg/kg/dose", "value": 4.6, "unit": "days"},
      {"measurement": "Current Stability Data Summary: No change in purity at", "setting": "[4]", "value": "−70° C., 2 years"},
      {"measurement": "Solubility at 25° C. (saline)", "setting": "[5]", "value": 14, "unit": "mg/mL"},
      {"measurement": "% Purity", "setting": "[6]; 0.5 hours", "value": 89.5, "unit": "%"},
      {"measurement": "% Purity", "setting": "[6]; 1.0 hours", "value": 80.3, "unit": "%"},
      {"measurement": "% Purity", "setting": "[6]; 2.0 hours", "value": 64.8, "unit": "%"},
      {"measurement": "% Purity", "setting": "[6]; 3.0 hours", "value": 52.1, "unit": "%"},
      {"measurement": "% Purity", "setting": "[6]; reconstitution time 0 hours", "value": 100.00, "unit": "%"}
    ]},
    {"smiles": "O=P1(N(CCCl)CCCl)NCCCO1", "note": "(stereo not drawn) [CPA, cyclophosphamide]", "values": [
      {"measurement": "effect of therapy on sarcoma growth", "setting": "[7]", "value": "no effect"}
    ]}
  ]
}
